# Key:
# Experiment in all cases: Competitive isoTOP-ABPP, cell lysates
# Format in all cases: binding
# [1] = molecular target: MLTK C22 (Q9NYL2) (Homo sapiens, UniProt Q9NYL2); conditions: for R value (DMSO/fragment): in vitro, MDA-MB-231; for isoTOP-ABPP ratio Q9NYL2_C22: invitro, 231; for isoTOP-ABPP ratio (reactivity profile), Q9NYL2_C22: 500 μm in-vitro ramos_231
# [2] = molecular target: CASP8 C360 (Q14790) (Homo sapiens, UniProt Q14790)
# [3] = molecular target: T1, KDM4B C694 (O94953) (Homo sapiens, UniProt O94953)
# T1 sequence (O94953 1-1096): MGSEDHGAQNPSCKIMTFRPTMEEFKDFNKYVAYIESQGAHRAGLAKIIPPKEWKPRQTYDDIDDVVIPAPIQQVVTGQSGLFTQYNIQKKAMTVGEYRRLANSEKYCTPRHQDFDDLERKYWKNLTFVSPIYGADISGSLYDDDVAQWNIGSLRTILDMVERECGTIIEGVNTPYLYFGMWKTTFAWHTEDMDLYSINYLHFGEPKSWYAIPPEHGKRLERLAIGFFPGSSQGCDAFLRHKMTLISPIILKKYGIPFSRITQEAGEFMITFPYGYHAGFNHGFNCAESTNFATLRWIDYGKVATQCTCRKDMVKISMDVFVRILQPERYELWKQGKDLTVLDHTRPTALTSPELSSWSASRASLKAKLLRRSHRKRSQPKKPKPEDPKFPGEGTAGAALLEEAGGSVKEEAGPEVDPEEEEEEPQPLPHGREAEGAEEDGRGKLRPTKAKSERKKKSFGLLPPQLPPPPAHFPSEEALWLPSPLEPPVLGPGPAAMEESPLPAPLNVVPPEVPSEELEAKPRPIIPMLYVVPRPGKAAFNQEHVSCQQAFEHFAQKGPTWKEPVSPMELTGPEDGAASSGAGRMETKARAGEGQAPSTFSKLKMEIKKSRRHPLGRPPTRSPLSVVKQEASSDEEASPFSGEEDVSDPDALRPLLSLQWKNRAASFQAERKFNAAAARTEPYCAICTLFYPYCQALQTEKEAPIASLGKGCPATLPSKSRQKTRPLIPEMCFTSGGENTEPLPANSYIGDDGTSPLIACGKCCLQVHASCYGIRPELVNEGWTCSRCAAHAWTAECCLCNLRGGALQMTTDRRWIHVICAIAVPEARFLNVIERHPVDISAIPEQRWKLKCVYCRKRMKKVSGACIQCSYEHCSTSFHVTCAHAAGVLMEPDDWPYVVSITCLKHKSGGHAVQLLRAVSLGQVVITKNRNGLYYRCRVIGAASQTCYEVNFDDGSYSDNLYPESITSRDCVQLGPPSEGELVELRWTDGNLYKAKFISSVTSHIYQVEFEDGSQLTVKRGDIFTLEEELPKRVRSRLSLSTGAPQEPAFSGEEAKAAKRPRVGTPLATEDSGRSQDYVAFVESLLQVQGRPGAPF
# [4] = molecular target: PFKFB4 C159 (Q16877) (Homo sapiens, UniProt Q16877); conditions: for isoTOP-ABPP ratio (reactivity profile), Q16877_C159: 500 μm in-vitro ramos
# Sequence of PFKFB4 C159 (Q16877) (Q16877 whole entry): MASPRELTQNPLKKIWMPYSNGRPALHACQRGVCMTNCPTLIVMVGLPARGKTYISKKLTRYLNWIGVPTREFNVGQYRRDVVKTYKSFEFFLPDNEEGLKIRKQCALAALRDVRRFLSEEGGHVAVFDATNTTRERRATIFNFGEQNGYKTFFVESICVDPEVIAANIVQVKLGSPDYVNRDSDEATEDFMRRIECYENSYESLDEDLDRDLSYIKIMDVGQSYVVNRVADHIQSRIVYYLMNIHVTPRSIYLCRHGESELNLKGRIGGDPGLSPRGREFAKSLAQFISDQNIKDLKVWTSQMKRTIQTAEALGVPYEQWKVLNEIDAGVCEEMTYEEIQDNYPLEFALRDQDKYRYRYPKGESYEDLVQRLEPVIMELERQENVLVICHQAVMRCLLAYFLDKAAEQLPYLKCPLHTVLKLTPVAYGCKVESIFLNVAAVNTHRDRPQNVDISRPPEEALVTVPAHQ
# [5] = molecular target: T2, IRF8 C306 (Q02556) (Homo sapiens, UniProt Q02556); conditions: for isoTOP-ABPP ratio (reactivity profile), Q02556_C306: 500 μm in-vitro ramos
# T2 sequence (Q02556 1-426): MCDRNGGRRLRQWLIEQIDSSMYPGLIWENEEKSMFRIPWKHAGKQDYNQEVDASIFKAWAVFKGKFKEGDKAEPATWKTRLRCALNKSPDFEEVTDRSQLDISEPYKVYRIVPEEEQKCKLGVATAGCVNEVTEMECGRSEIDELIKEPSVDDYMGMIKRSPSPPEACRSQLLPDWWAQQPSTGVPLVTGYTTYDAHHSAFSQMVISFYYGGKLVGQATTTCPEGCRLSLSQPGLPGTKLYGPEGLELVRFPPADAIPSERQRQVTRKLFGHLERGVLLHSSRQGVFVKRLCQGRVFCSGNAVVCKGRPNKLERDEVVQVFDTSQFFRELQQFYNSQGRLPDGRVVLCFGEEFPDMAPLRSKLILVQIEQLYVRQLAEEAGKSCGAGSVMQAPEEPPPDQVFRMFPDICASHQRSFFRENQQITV
# Sequence of MLTK C22 (Q9NYL2) (Q9NYL2 whole entry, the tested form may be a part): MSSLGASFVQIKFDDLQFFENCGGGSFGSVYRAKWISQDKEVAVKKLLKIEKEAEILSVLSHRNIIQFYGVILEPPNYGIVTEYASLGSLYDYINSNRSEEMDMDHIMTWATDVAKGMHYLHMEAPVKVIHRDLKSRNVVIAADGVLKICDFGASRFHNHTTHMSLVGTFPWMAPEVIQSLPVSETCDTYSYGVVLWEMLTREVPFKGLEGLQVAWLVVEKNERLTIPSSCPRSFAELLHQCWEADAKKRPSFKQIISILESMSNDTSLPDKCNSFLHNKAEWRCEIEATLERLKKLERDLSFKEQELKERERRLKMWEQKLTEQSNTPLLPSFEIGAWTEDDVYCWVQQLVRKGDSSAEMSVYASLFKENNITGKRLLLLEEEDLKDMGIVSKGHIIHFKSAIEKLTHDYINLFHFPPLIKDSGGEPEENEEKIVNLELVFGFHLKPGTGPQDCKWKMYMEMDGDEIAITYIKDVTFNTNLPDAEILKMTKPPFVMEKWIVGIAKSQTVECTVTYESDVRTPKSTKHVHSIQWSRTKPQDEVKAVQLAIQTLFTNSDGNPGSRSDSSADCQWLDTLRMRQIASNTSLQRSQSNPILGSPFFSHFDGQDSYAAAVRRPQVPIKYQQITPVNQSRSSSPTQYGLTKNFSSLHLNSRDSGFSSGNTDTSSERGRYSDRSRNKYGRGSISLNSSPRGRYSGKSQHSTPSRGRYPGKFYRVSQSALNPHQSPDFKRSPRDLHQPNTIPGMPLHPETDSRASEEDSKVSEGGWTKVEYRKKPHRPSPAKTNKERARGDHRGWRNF
# Sequence of CASP8 C360 (Q14790) (Q14790 whole entry): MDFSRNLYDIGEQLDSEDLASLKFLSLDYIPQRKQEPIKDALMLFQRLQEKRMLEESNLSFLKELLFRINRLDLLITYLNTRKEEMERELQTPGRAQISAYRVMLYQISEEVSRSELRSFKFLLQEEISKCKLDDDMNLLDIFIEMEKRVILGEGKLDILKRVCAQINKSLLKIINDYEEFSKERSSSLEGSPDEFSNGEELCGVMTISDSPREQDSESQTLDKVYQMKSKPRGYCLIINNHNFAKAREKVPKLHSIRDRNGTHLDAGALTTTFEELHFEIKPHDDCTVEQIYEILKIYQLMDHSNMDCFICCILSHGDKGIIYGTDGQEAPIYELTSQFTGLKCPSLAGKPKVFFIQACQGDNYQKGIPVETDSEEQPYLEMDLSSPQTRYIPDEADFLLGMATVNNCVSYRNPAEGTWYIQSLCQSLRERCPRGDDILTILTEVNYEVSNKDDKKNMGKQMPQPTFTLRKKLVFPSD
structure (smiles),measurement,setting,value
O=C(CCl)NC1C(O)OC(CO)C(O)C1O (mixture of isomers) [compound 44],"isoTOP-ABPP reactivity profile ratio, Q9NYL2_C22","[1]; 500 μm, in-vitro_ramos_231",0.8
COc1ccc2c(c1)CCCN2C(=O)CCl [compound 2],R value (DMSO/fragment),[1]; 500 μM,20.0
same,R value (DMSO/fragment),"[2]; 500 μM, in vitro, MDA-MB-231",9.8
same,R value (DMSO/fragment),"[3]; 500 μM, in vitro, MDA-MB-231",20.0
same,R value (DMSO/fragment),"[3]; 500 μM, invitro, ramos",5.1
O=C(CCl)Nc1cc(C(F)(F)F)cc(C(F)(F)F)c1 [compound 3],R value (DMSO/fragment),[1]; 500 μM,1.8
same,R value (DMSO/fragment),"[4]; 500 μM, invitro, ramos",12.9
same,R value (DMSO/fragment),"[2]; 500 μM, in vitro, MDA-MB-231",3.3
same,R value (DMSO/fragment),"[2]; 500 μM, invitro, ramos",2.3
same,R value (DMSO/fragment),"[3]; 500 μM, in vitro, MDA-MB-231",20.0
same,R value (DMSO/fragment),"[3]; 500 μM, invitro, ramos",7.4
same,R value (DMSO/fragment),"[5]; 500 μM, invitro, ramos",5.6
COc1ccc(C2CC(c3cccs3)=NN2C(=O)CCl)cc1 (stereo not shown) [compound 4],R value (DMSO/fragment),[1]; 250 μM,20.0
same,R value (DMSO/fragment),"[4]; 250 μM, in vitro, MDA-MB-231",1.4
same,R value (DMSO/fragment),"[2]; 250 μM, in vitro, MDA-MB-231",12.3
same,R value (DMSO/fragment),"[3]; 250 μM, in vitro, MDA-MB-231",20.0
C=CC(=O)N(c1ccccc1)c1ccc(Br)cc1 [compound 5],isoTOP-ABPP ratio Q9NYL2_C22,[1]; 500 μM,20.0
same,"isoTOP-ABPP ratio, Q16877_C159","[4]; 500 μM, invitro, ramos",20.0
same,isoTOP-ABPP ratio Q14790_C360,"[2]; 500 μM, invitro, 231",1.0
same,isoTOP-ABPP ratio Q14790_C360,"[2]; 500 μM, invitro, ramos",1.3
same,"isoTOP-ABPP ratio, Q02556_C306","[5]; 500 μM, invitro, ramos",2.6
CNS(=O)(=O)C=Cc1ccc2c(ccn2Cc2ccccc2)c1 [compound 6],"isoTOP-ABPP ratio, O94953_C694","[3]; 500 μM, invitro, 231",1.1
O=C(CCl)N1CCN(S(=O)(=O)c2ccccc2F)CC1 [compound 10],"isoTOP-ABPP ratio, Q16877_C159","[4]; 500 μM, invitro, 231",1.2
same,isoTOP-ABPP ratio Q14790_C360,"[2]; 500 μM, invitro, 231",2.8
same,isoTOP-ABPP ratio Q14790_C360,"[2]; 500 μM, invitro, ramos",1.5
same,"isoTOP-ABPP ratio, O94953_C694","[3]; 500 μM, invitro, ramos",1.4
same,"isoTOP-ABPP ratio, Q02556_C306","[5]; 500 μM, invitro, ramos",3.6
Cn1cc(S(=O)(=O)N2CCOCC2)cc1C(=O)NC(=O)CCl [compound 11],"isoTOP-ABPP ratio, Q16877_C159","[4]; 500 μM, invitro, ramos",0.6
same,isoTOP-ABPP ratio Q14790_C360,"[2]; 500 μM, invitro, 231",20.0
same,isoTOP-ABPP ratio Q14790_C360,"[2]; 500 μM, invitro, ramos",20.0
same,"isoTOP-ABPP ratio, O94953_C694","[3]; 500 μM, invitro, ramos",1.9
same,"isoTOP-ABPP ratio, Q02556_C306","[5]; 500 μM, invitro, ramos",3.1
O=C(CCl)NCCc1c[nH]c2ccccc12 [compound 13],isoTOP-ABPP ratio Q9NYL2_C22,[1]; 500 μM,5.2
same,"isoTOP-ABPP ratio, Q16877_C159","[4]; 500 μM, invitro, 231",0.9
same,"isoTOP-ABPP ratio, O94953_C694","[3]; 500 μM, invitro, 231",1.4
same,"isoTOP-ABPP ratio, O94953_C694","[3]; 500 μM, invitro, ramos",1.1
same,"isoTOP-ABPP ratio, Q02556_C306","[5]; 500 μM, invitro, ramos",0.7
C=CC(=O)N(Cc1cccnc1)c1ccc(Oc2ccccc2)c(C(F)(F)F)c1 [compound 15],"isoTOP-ABPP ratio (reactivity profile), O94953_C694",[3]; 500 μm in-vitro ramos,1.1
same,"isoTOP-ABPP ratio (reactivity profile), Q02556_C306",[5],2.1
O=C(CCl)N1CCC(C(O)(c2ccccc2)c2ccccc2)CC1 [compound 20],"isoTOP-ABPP ratio (reactivity profile), Q9NYL2_C22",[1],20.0
same,"isoTOP-ABPP ratio (reactivity profile), Q16877_C159",[4],1.0
same,"isoTOP-ABPP ratio (reactivity profile), Q14790_C360",[2]; 500 μm in-vitro ramos,1.5
same,"isoTOP-ABPP ratio (reactivity profile), Q14790_C360",[2]; 500 μm in-vitro ramos_231,1.9
same,"isoTOP-ABPP ratio (reactivity profile), O94953_C694",[3]; 500 μm in-vitro ramos,2.0
same,"isoTOP-ABPP ratio (reactivity profile), O94953_C694",[3]; 500 μm in-vitro ramos_231,2.8
same,"isoTOP-ABPP ratio (reactivity profile), Q02556_C306",[5],2.1
O=C(CCl)NC12CC3CC(CC(C3)C1)C2 [compound 21],"isoTOP-ABPP ratio (reactivity profile), Q9NYL2_C22",[1],2.0
same,"isoTOP-ABPP ratio (reactivity profile), Q16877_C159",[4],1.2
same,"isoTOP-ABPP ratio (reactivity profile), Q14790_C360",[2]; 500 μm in-vitro ramos,1.9
same,"isoTOP-ABPP ratio (reactivity profile), Q14790_C360",[2]; 500 μm in-vitro ramos_231,1.9
same,"isoTOP-ABPP ratio (reactivity profile), O94953_C694",[3]; 500 μm in-vitro ramos,1.8
O=C(CCl)N1CCOCC1 [compound 22],"isoTOP-ABPP ratio (reactivity profile), Q9NYL2_C22",[1],1.0
N#C/C(=C\c1cc(C(F)(F)F)cc(C(F)(F)F)c1)C(N)=O [compound 23],"isoTOP-ABPP ratio (reactivity profile), Q9NYL2_C22",[1],1.4
same,"isoTOP-ABPP ratio (reactivity profile), Q16877_C159",[4],1.0
same,"isoTOP-ABPP ratio (reactivity profile), Q14790_C360",[2]; 500 μm in-vitro ramos,1.4
same,"isoTOP-ABPP ratio (reactivity profile), Q14790_C360",[2]; 500 μm in-vitro ramos_231,1.4
same,"isoTOP-ABPP ratio (reactivity profile), O94953_C694",[3]; 500 μm in-vitro ramos,3.2
CC(Br)C(=O)Nc1cc(C(F)(F)F)cc(C(F)(F)F)c1 (stereo not shown) [compound 24],"isoTOP-ABPP ratio (reactivity profile), Q14790_C360",[2]; 500 μm in-vitro ramos,1.4
same,"isoTOP-ABPP ratio (reactivity profile), Q02556_C306",[5],1.2
CC(Cl)C(=O)Nc1cc(C(F)(F)F)cc(C(F)(F)F)c1 (stereo not shown) [compound 25],"isoTOP-ABPP ratio (reactivity profile), Q9NYL2_C22",[1],0.8
same,"isoTOP-ABPP ratio (reactivity profile), Q14790_C360",[2]; 500 μm in-vitro ramos_231,1.0

# — patent publication US10670605B2, “Cysteine reactive probes and uses thereof” (The Scripps Research Institute, priority 2015, dated 2020)
